Assays:
Assay in all cases: relative viability (nuclei count vs DMSO), 5 days (fraction); higher = more cells survive
[1] = tested on: NCI-H520
Procedure, shortened: (§1)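 Medians of duplicate plates are given as relative viability. That measure is the nuclei count in treated wells divided by the count in vehicle wells. Counts were taken on 4× images of lung cancer cell lines in 1536-well plates, 5 days after pin-tool dosing the day after seeding with one drug alone or a fixed anchor-drug dose plus five library-drug doses (not always all listed) in √10 steps.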

[2] = tested on: NCI-H2170
Procedure, shortened: as §1

[3] = tested on: HOP-62
Procedure, shortened: as §1

[4] = tested on: NCI-H1793
Procedure, shortened: as §1

[5] = tested on: NCI-H23
Procedure, shortened: as §1

[6] = tested on: SW 1573
Procedure, shortened: as §1

[7] = tested on: PC-14
Procedure, shortened: as §1

[8] = tested on: NCI-H2023
Procedure, shortened: as §1

[9] = tested on: LOU-NH91
Procedure, shortened: as §1

[10] = tested on: NCI-H2405
Procedure, shortened: as §1

[11] = tested on: EPLC-272H
Procedure, shortened: as §1

[12] = tested on: NCI-H2009
Procedure, shortened: as §1

[13] = tested on: HCC-44
Procedure, shortened: as §1

[14] = tested on: NCI-H441
Procedure, shortened: as §1

[15] = tested on: NCI-H460
Procedure, shortened: as §1

[16] = tested on: NCI-H727
Procedure, shortened: as §1

[17] = tested on: ChaGo-K-1
Procedure, shortened: as §1

[18] = tested on: NCI-H650
Procedure, shortened: as §1

[19] = tested on: NCI-H647
Procedure, shortened: as §1

[20] = tested on: LCLC-103H
Procedure, shortened: as §1

[21] = tested on: NCI-H1437
Procedure, shortened: as §1

[22] = tested on: NCI-H2126
Procedure, shortened: as §1

[23] = tested on: EMC-BAC-2
Procedure, shortened: as §1

[24] = tested on: NCI-H2347
Procedure, shortened: as §1

[25] = tested on: SW 900
Procedure, shortened: as §1

## CCCCCCCCCCCC1=C(O)C(=O)C=C(O)C1=O [Embelin] + CC(=O)Nc1cccc(-n2c(=O)n(C3CC3)c(=O)c3c(Nc4ccc(I)cc4F)n(C)c(=O)c(C)c32)c1 [Trametinib] (partner 0.02 µM)
[1]; first compound 0.08 µM
  relative viability: 0.689
[1]; first compound 0.8 µM
  relative viability: 0.72
[1]; first compound 2.53 µM
  relative viability: 0.95
[1]; first compound 8 µM
  relative viability: 0.705
[2]; first compound 0.08 µM
  relative viability: 0.946
[2]; first compound 0.8 µM
  relative viability: 0.877
[2]; first compound 2.53 µM
  relative viability: 1.11
[2]; first compound 8 µM
  relative viability: 0.9
[3]; first compound 0.08 µM
  relative viability: 0.402
[3]; first compound 0.8 µM
  relative viability: 0.472
[3]; first compound 2.53 µM
  relative viability: 0.476
[3]; first compound 8 µM
  relative viability: 0.379
[4]; first compound 0.08 µM
  relative viability: 0.398
[4]; first compound 0.8 µM
  relative viability: 0.446
[4]; first compound 2.53 µM
  relative viability: 0.511
[4]; first compound 8 µM
  relative viability: 0.419
[5]; first compound 0.08 µM
  relative viability: 0.344
[5]; first compound 0.8 µM
  relative viability: 0.476
[5]; first compound 2.53 µM
  relative viability: 0.437
[5]; first compound 8 µM
  relative viability: 0.396
[6]; first compound 0.08 µM
  relative viability: 0.604
[6]; first compound 0.8 µM
  relative viability: 0.636
[6]; first compound 2.53 µM
  relative viability: 0.625
[6]; first compound 8 µM
  relative viability: 0.603
[7]; first compound 0.08 µM
  relative viability: 0.728
[7]; first compound 0.8 µM
  relative viability: 0.839
[7]; first compound 2.53 µM
  relative viability: 0.982
[7]; first compound 8 µM
  relative viability: 0.724
[8]; first compound 0.08 µM
  relative viability: 0.568
[8]; first compound 0.8 µM
  relative viability: 0.654
[8]; first compound 2.53 µM
  relative viability: 0.613
[8]; first compound 8 µM
  relative viability: 0.495
[9]; first compound 0.08 µM
  relative viability: 0.785
[9]; first compound 0.8 µM
  relative viability: 0.831
[9]; first compound 2.53 µM
  relative viability: 0.828
[9]; first compound 8 µM
  relative viability: 0.805
[10]; first compound 0.08 µM
  relative viability: 0.664
[10]; first compound 0.8 µM
  relative viability: 0.778
[10]; first compound 2.53 µM
  relative viability: 0.638
[10]; first compound 8 µM
  relative viability: 0.626
[11]; first compound 0.08 µM
  relative viability: 0.315
[11]; first compound 0.8 µM
  relative viability: 0.282
[11]; first compound 2.53 µM
  relative viability: 0.296
[11]; first compound 8 µM
  relative viability: 0.253
[12]; first compound 0.08 µM
  relative viability: 0.335
[12]; first compound 0.8 µM
  relative viability: 0.306
[12]; first compound 2.53 µM
  relative viability: 0.268
[12]; first compound 8 µM
  relative viability: 0.296
[13]; first compound 0.08 µM
  relative viability: 1.04
[13]; first compound 0.8 µM
  relative viability: 1.08
[13]; first compound 2.53 µM
  relative viability: 1.1
[13]; first compound 8 µM
  relative viability: 1.08
[14]; first compound 0.08 µM
  relative viability: 0.399
[14]; first compound 0.8 µM
  relative viability: 0.584
[14]; first compound 2.53 µM
  relative viability: 0.552
[14]; first compound 8 µM
  relative viability: 0.465
[15]; first compound 0.08 µM
  relative viability: 0.173
[15]; first compound 0.8 µM
  relative viability: 0.202
[15]; first compound 2.53 µM
  relative viability: 0.151
[15]; first compound 8 µM
  relative viability: 0.112
[16]; first compound 0.08 µM
  relative viability: 0.4
[16]; first compound 0.8 µM
  relative viability: 0.394
[16]; first compound 2.53 µM
  relative viability: 0.39
[16]; first compound 8 µM
  relative viability: 0.423
[17]; first compound 0.08 µM
  relative viability: 0.966
[17]; first compound 0.8 µM
  relative viability: 0.871
[17]; first compound 2.53 µM
  relative viability: 0.963
[17]; first compound 8 µM
  relative viability: 0.922
[18]; first compound 0.08 µM
  relative viability: 0.977
[18]; first compound 0.8 µM
  relative viability: 1.47
[18]; first compound 2.53 µM
  relative viability: 1.02
[18]; first compound 8 µM
  relative viability: 0.987
[19]; first compound 0.08 µM
  relative viability: 0.489
[19]; first compound 0.8 µM
  relative viability: 0.528
[19]; first compound 2.53 µM
  relative viability: 0.638
[19]; first compound 8 µM
  relative viability: 0.446
[20]; first compound 0.08 µM
  relative viability: 0.718
[20]; first compound 0.8 µM
  relative viability: 0.742
[20]; first compound 2.53 µM
  relative viability: 0.674
[20]; first compound 8 µM
  relative viability: 0.698
[21]; first compound 0.08 µM
  relative viability: 0.531
[21]; first compound 0.8 µM
  relative viability: 0.607
[21]; first compound 2.53 µM
  relative viability: 0.648
[21]; first compound 8 µM
  relative viability: 0.505
[22]; first compound 0.08 µM
  relative viability: 0.495
[22]; first compound 0.8 µM
  relative viability: 0.548
[22]; first compound 2.53 µM
  relative viability: 0.553
[22]; first compound 8 µM
  relative viability: 0.546
[23]; first compound 0.08 µM
  relative viability: 0.845
[23]; first compound 0.8 µM
  relative viability: 1.08
[23]; first compound 2.53 µM
  relative viability: 0.883
[23]; first compound 8 µM
  relative viability: 0.913
[24]; first compound 0.08 µM
  relative viability: 0.307
[24]; first compound 0.8 µM
  relative viability: 0.272
[24]; first compound 2.53 µM
  relative viability: 0.255
[24]; first compound 8 µM
  relative viability: 0.316
[25]; first compound 0.08 µM
  relative viability: 0.779
[25]; first compound 0.8 µM
  relative viability: 0.962
[25]; first compound 2.53 µM
  relative viability: 0.781
[25]; first compound 8 µM
  relative viability: 1.15

— the supplement of paper PMC10307832
